Reference: patent US12150940B2, “WASp-protecting small molecules, compositions, methods and uses thereof in the treatment of innate and acquired immune-related disorders or conditions” (BAR ILAN UNIVERSITY, priority 2016, dated 2024)
Peptide text beside a SMILES is read from it. * marks the point of attachment. Cbz = O=C(OCc1ccccc1)*

Target: T1, WASp (Homo sapiens, UniProt P42768)
T1 construct: endogenous in cells; host or cells: primary human platelets from healthy donors
T1 sequence (P42768 1-502): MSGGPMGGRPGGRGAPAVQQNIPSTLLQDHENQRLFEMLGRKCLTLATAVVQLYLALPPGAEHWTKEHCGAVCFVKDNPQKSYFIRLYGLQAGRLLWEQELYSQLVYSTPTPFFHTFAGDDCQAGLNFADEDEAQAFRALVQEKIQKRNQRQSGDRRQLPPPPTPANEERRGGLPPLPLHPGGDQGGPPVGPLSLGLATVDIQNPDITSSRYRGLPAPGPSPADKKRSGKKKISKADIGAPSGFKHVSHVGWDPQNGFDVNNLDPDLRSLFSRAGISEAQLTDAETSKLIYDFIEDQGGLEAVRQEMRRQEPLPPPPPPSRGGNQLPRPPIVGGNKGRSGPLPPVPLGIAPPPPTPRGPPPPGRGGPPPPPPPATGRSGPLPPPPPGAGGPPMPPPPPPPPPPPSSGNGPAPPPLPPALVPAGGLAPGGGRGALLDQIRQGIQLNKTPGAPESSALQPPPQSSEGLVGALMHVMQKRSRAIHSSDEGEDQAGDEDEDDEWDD
Assay: WASp expression in TRAP-6-activated platelets (western blot)
Type: cell-based
Experimental: FIG. 4A-4B. Freshly-isolated platelets were incubated with SMC #6 or control at 37° C. for the indicated times. The platelets were either stimulated (+) with TRAP-6 (10 μM) or left unstimulated (−), followed by lysis. Lysates were analyzed for WASp expression by immunoblotting with anti-WASp and anti-GAPDH as loading control (FIG. 4A). Relative WASp expression was determined by densitometric analysis and is presented in a summarizing graph of FIG. 4B. Error bars represent the SE from the mean. P values are presented and were calculated by two-tailed Student's t-test. Data are representative of three independent experiments.
Jurkat T-cells (FIG. 5A) or Freshly-isolated PBMCs (FIG. 5B) were incubated for 15 min at 37° C. with either control or the indicated WASp-binding SMCs, followed by co-stimulation with anti-CD3 and anti-CD28 and lysis. Freshly-isolated platelets were incubated for 15 min at 37° C. with either control or the indicated WASp-binding SMCs, followed by stimulation with TRAP-6 (10 μM) and lysis (FIG. 5C). Lysates were analyzed for WASp expression by immunoblotting with anti-WASp and anti-GAPDH as loading control. Western blot is representative of three independent experiments. […] Relative WASp expression was determined by densitometric analysis. […]
FIG. 6A-6D. […] Lysates were analyzed for WASp expression by immunoblotting with anti-WASp and anti-GAPDH as loading control (FIG. 6A). […]

WASp degradation in activated platelets (40 μM, 15 min pre-incubation, vs DMSO control)	Compound	increase in WASp expression (platelets after 15 min of activation, with vs without proteasome inhibitor (10 μM, 1 h))
	CC(C)C[C@@H](C=O)NC(=O)[C@H](CC(C)C)NC(=O)[C@H](CC(C)C)NC(=O)OCc1ccccc1 [MG132] (Cbz-Leu-Leu-Leu-aldehyde)	more than 2 fold
attenuated WASp degradation	CC(=O)N[C@H]1C[C@@H](c2ccc3c(c2)nnn3C)O[C@@H](c2ccc(Cl)cc2)C1 [SMC #6, N-[(2R,4R,6S)-2-(4-chlorophenyl)-6-(1-methylbenzotriazol-5-yl)oxan-4-yl]acetamide]	
